# Results as given in ChEMBL document CHEMBL1150345 (J Med Chem, 2008).
# Biological target: T1, Histamine H4 receptor (Homo sapiens, UniProt Q9H3N8)
# Test: biochemical
# Assay type: cell-based, SK-N-MC
# Conditions: not given
row,SMILES,Ki [nM]
1,N=C(N)SCCc1cnc[nH]1 [IMETIT],3.6
2,NC(=NCCc1ccc(I)cc1)SCCCc1cnc[nH]1 [IODOPHENPROPIT],7.8
3,C[C@@H](N)Cc1c[nH]cn1,184
4,Cc1cc(C)nc(N=C(N)NCCc2cnc[nH]2)n1,85
5,NC(=NCc1ccc(Cl)cc1)SCCCc1cnc[nH]1 [CLOBENPROPIT],5
6,C/N=C(\N)N/N=C(/C)c1ccc2sc3ccc(/C(C)=N\N/C(N)=N/C)cc3c2c1,1480
7,CN(C)CCCSC(=N)N,90

# The remaining lines, values ahead:
row,Ki [nM],SMILES
1,897,CC(/C=C(\C)NNC(=N)N)=N/NC(=N)N
2,1240,N=C(N)NCc1cccc(CNC(=N)N)n1
3,219,CCOC(=O)c1ccc(NC2=CC(=O)/C(=N\NC(=N)N)c3ccccc32)cc1

# Biological target: T1, Histamine H4 receptor
# Test: Displacement of [3H]histamine from human histamine H4 receptor expressed in […] cells at 5 uM
# Assay type: cell-based
# Conditions: SK-N-MC
row,SMILES,Activity [%]
1,COc1cccc(C2NCCc3[nH]cnc32)c1 (stereo unspecified),20.9
2,CC(/C=C/NNC(=N)N)=N/NC(=N)N,33.9
3,C/N=C(\N)N/N=C(/C)c1ccc2sc3ccc(/C(C)=N\N/C(N)=N/C)cc3c2c1,72
4,Cc1cc(C)nc(N/C(N)=N/CCc2c[nH]cn2)n1,95.8

# Further lines, results first:
row,Activity [%],SMILES
1,23,CN1CCN(C(=O)c2cccc(Nc3nc(-c4ccccc4)c4cc(Br)ccc4n3)c2)CC1
2,64.3,CC(/C=C(\C)NNC(=N)N)=N/NC(=N)N
3,26,C[n+]1cccc(NC(=O)c2ccc(NC(=O)c3ccc(C(=O)Nc4ccc(NC(=N)N)cc4)cc3)cc2)c1
4,37.1,N=C(N)NC(=N)Nc1ccc(Cl)cc1C(=O)c1ccccc1
5,44,N=C(N)NN=C1C=CC(=NNC(=N)N)C=C1
6,29.4,CN(C)CCCNC(=O)/C(=C\c1cn(-c2ccccc2)nc1-c1ccc(Br)cc1)NC(=O)c1ccccc1
7,67.8,N=C(N)NCc1cccc(CNC(=N)N)n1
8,34.3,CN(CCN(C)c1ccc(N)cc1)c1ccc(N)cc1
9,34.7,N=C(N)NN/C(=C(\O)c1ccccc1)c1ccccc1
10,46.9,NCCNC(=O)c1cc2ccccc2[nH]1
11,92.6,CCOC(=O)c1ccc(NC2=CC(=O)/C(=N\NC(=N)N)c3ccccc32)cc1
12,50.3,CN1CCN(c2ccccc2NC(=S)NC(=O)c2cc3ccccc3o2)CC1
